Source: patent US7067261B2 (priority 2001, dated 2006)

Assays:
[1] = tested on: Reserpine-Induced Dopamine Depletion—Mice; settings: mouse, in vivo; cited from earlier work
PC12 cells = format: cell-based, rat
JAK2 = format: cell-based
[2] = tested on: poly-(ADP-ribose)polymerase (PARP); format: cell-based, rat
[3] = tested on: methamphetamine toxicity in mice; settings: mouse, in vivo; cited from earlier work
[4] = molecular target: JAK2 complex formation with the α7 receptor (Rattus norvegicus, UniProt Q05941)
Sequence of JAK2 complex formation with the α7 receptor (Q05941 23-502): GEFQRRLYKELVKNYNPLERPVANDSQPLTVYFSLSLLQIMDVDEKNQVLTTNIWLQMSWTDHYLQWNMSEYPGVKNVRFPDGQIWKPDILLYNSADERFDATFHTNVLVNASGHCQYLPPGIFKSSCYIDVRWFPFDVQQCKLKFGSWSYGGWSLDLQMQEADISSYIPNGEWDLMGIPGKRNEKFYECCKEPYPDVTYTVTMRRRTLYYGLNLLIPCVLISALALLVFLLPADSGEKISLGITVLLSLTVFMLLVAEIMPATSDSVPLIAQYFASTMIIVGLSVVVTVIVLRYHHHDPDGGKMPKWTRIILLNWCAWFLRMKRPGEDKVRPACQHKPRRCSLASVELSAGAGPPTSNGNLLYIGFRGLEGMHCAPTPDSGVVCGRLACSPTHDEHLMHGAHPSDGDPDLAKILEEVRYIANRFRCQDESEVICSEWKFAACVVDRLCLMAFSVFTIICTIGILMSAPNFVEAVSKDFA
Sequence of JAK2 complex formation with the α7 receptor (Q62689 whole entry, further chain): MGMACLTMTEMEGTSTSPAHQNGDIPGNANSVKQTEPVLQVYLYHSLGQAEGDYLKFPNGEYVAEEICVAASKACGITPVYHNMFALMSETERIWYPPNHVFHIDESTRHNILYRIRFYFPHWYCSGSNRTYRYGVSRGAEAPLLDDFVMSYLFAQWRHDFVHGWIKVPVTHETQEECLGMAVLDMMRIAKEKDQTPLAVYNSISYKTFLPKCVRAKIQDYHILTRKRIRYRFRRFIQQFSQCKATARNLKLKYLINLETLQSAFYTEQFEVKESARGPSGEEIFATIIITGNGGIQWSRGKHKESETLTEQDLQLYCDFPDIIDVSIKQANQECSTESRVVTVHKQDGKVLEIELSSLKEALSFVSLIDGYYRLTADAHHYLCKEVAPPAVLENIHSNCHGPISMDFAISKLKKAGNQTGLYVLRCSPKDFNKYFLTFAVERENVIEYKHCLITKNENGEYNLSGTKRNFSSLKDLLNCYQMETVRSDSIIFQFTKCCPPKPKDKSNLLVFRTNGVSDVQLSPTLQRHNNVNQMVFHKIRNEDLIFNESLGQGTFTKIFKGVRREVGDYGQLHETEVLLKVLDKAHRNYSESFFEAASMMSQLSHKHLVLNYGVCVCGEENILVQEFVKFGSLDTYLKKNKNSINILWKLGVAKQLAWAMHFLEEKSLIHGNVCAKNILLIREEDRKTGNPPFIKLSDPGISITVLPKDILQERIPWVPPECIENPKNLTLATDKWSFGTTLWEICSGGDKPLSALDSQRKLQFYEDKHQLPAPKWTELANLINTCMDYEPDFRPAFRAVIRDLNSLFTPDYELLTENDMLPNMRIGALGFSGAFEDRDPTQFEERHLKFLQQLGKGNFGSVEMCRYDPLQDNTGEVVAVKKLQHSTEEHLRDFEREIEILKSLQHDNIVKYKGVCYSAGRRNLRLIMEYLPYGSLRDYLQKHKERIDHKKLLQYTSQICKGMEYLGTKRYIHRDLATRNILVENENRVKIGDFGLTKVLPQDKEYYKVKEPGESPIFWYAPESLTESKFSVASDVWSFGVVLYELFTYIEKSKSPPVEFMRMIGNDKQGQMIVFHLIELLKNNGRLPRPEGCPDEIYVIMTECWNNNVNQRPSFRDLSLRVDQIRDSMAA

MPTP effects, Mice = settings: mouse, in vivo; cited from earlier work
[5] = tested on: 6-OHDA (Partial Lesion)—Rats; settings: rat, in vivo, sc, 1 mg/kg; cited from earlier work
caspase 3 = format: cell-based, rat
[6] = molecular target: complex formation between Aβ(1–42) and α7-nAChR (Rattus norvegicus, UniProt Q05941); format: cell-based
Sequence of complex formation between Aβ(1–42) and α7-nAChR (Q05941 23-502, one chain of several): as the sequence (Q05941 23-502) above

Akt = format: cell-based, rat
muscle subtype α1β1γδ = muscle subtype α1β1γδ (Homo sapiens, UniProt P02708+P07510+Q07001); format: cell-based
Sequence of muscle subtype α1β1γδ (P07510 23-517): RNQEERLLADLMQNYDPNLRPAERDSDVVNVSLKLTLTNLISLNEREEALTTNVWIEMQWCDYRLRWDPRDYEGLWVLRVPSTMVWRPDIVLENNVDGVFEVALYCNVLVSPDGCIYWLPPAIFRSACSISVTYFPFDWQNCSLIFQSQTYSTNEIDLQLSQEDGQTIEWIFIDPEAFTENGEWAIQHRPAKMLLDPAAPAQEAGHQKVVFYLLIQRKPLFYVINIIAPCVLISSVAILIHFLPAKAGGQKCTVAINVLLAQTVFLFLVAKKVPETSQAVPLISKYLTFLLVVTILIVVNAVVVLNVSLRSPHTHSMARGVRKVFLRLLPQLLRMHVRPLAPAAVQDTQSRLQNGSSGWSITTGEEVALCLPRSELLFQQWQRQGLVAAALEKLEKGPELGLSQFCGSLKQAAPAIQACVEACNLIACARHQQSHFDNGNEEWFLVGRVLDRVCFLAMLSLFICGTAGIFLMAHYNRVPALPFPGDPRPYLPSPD
Sequence of muscle subtype α1β1γδ (Q07001 22-517): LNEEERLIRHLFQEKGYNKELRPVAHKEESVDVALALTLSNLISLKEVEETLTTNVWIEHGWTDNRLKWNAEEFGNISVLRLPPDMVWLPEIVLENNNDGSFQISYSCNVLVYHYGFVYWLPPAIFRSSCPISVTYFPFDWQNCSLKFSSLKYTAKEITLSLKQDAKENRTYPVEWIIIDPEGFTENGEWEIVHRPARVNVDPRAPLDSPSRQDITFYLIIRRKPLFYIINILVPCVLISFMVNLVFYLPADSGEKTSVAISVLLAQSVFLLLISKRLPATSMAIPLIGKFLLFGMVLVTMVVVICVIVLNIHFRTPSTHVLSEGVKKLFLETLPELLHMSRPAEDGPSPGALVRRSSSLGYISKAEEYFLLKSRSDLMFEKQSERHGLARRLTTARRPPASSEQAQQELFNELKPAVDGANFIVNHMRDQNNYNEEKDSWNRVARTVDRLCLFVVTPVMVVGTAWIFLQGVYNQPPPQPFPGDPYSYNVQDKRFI
Sequence of muscle subtype α1β1γδ (P02708 21-457): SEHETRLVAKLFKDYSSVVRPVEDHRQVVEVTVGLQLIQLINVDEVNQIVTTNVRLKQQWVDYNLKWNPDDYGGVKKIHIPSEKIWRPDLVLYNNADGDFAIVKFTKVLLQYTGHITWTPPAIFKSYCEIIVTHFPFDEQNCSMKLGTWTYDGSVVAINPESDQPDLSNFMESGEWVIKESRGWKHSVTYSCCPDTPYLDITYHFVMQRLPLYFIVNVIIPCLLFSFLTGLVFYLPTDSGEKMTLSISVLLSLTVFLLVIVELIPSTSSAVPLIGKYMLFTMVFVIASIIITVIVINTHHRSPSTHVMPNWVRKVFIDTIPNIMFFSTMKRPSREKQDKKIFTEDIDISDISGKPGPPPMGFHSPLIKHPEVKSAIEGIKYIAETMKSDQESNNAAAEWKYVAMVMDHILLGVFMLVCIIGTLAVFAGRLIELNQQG
Sequence of muscle subtype α1β1γδ (P11230 24-501, further chain): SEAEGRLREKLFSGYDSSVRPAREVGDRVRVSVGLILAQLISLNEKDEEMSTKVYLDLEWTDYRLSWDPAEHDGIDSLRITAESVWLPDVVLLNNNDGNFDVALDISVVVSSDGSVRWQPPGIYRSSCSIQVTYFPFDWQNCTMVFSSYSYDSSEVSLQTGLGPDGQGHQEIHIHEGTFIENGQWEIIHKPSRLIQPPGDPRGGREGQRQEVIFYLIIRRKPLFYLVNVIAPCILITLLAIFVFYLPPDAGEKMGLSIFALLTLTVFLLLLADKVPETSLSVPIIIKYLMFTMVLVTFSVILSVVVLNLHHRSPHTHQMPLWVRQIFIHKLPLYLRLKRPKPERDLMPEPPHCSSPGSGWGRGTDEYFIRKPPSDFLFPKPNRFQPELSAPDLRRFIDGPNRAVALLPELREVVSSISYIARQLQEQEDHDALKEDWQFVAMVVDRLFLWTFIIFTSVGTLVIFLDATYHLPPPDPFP

α4β2 = α4β2 (Homo sapiens, UniProt P17787+P43681); format: cell-based
Sequence of α4β2 (P43681 29-627): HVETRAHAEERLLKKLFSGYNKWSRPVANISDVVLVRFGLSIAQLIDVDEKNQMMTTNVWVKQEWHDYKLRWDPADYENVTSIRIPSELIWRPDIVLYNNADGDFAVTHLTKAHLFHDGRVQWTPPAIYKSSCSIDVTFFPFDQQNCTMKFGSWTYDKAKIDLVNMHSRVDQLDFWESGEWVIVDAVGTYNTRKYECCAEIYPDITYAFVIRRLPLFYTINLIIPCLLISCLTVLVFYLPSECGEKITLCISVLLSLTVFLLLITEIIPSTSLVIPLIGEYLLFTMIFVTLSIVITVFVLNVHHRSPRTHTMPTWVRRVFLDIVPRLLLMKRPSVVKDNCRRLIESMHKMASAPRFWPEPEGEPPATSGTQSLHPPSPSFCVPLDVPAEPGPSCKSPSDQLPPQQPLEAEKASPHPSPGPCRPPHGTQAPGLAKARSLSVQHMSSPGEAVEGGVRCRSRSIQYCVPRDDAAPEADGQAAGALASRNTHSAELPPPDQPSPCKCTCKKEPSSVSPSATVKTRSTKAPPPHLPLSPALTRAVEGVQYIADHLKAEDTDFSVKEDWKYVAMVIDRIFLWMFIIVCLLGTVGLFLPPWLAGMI
Sequence of α4β2 (P17787 26-502): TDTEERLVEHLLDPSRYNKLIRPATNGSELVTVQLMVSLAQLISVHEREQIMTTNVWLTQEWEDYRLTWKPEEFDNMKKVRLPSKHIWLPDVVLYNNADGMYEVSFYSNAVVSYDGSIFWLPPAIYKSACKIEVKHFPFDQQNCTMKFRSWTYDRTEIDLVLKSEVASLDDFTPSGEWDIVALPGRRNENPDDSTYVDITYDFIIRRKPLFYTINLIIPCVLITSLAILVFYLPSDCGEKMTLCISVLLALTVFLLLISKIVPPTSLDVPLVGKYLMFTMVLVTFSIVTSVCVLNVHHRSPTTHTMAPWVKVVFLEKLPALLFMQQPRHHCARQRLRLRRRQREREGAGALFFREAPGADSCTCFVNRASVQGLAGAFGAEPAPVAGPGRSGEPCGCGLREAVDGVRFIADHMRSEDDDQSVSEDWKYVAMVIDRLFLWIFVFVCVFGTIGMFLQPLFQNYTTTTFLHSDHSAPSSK

PI-3 kinase = format: cell-based, rat
ganglionic subtype α3β4 = ganglionic subtype α3β4 (Homo sapiens, UniProt P30926+P32297); format: cell-based
α7 nAChR = α7 nAChR (Homo sapiens, UniProt P36544); format: cell-based
α3β2 = α3β2 (Homo sapiens, UniProt P17787+P32297); format: cell-based
α7 = α7 (Homo sapiens, UniProt P36544); test: biochemical; format: binding

## C[N+](C)(C)CCCCCC[N+](C)(C)C [hexamethonium]
[1]
  effect on NIC blockade of reserpine-induced dopamine depletion: not

## Ang II (DRVYIHPF; Angiotensin-2; UniProt P01019 25-32, looked up)
PC12 cells
  PC12 cell number: significantly reduced
  effect on nicotine-induced neuroprotection (cell viability): complete reversal
JAK2
  effect of preincubation on nicotine-induced tyrosine phosphorylation of JAK2: blocks
[2]
  PARP cleavage / induction: nicotine-insensitive PARP induction

## CN1CCCC1c1cccnc1 (stereo not shown) [nicotine]
[3]
  methamphetamine toxicity (brain levels): prevents
[4]
  time to association of JAK2 with the α7 receptor: ≤ 5 min
PC12 cells; PC12 cells, Ang II 100 nM, 8 hours
  effect on Ang II-induced apoptosis (cell number): not affected
PC12 cells; PC12 cells, Aβ(1–42) 100 nM, 8 hours
  effect on Aβ(1–42)-induced cell death when co-incubated with AG-490: no effect
PC12 cells; PC12 cells, Aβ(1–42) 100 nM, 8 hours, P<0.01
  effect on cell death induced by Aβ(1–42): significantly reduced
JAK2
  time to JAK2 tyrosine phosphorylation: 5 to 10 min
[1]
  reserpine-induced dopamine depletion: blocked
MPTP effects, Mice
  striatal MPP+ levels induced by MPTP: reduces
[5]
  dopaminergic neurotoxicity (loss of striatal dopamine) induced by 6-OHDA: attenuates
Caspase 3; PC12 cells, nicotine 10 μM, Aβ(1–42) 100 nM, P<0.01
  effect on Aβ(1–42)-induced activation of caspase 3: blocked
[6]
  effect on co-immunoprecipitation (complex formation) of Aβ(1–42) and α7-nAChR: blocked

## c1cncc(C2CCC3CCN2CC3)c1 (stereo not shown) [TC-1698, 2-Pyridin-3-yl-1-aza-bicyclo[3.2.2]nonane]
Akt
  activation of Akt: activation
Muscle subtype α1β1γδ
  activation of muscle subtype α1β1γδ: does not activate
α4β2
  activation of neuronal subtype α4β2: does not activate
JAK2
  phosphorylation of Jak-2: induces phosphorylation of Jak-2
PI-3 kinase
  activation of PI-3 Kinase: activation
Ganglionic subtype α3β4
  activation of ganglionic subtype α3β4: does not activate
α7 nAChR
  potency in activating α7 nAChR relative to acetylcholine: 50 fold
α3β2
  activation of neuronal subtype α3β2: does not activate
α7
  Ki: 0.8 nM

## CNC1(C)C2CCC(C2)C1(C)C (stereo not shown) [mecamylamine]
[1]
  effect on NIC blockade of reserpine-induced dopamine depletion: blocked

## Aβ(1–42)
PC12 cells
  PC12 cell number: significant decrease
Caspase 3
  caspase 3 activity: significant increase
[2]
  PARP cleavage / induction: cleaved

## N#C/C(=C/c1ccc(O)c(O)c1)C(=O)NCc1ccccc1 [AG-490]
Akt
  effect on TC-1698-induced activation of Akt: suppression of activation
  effect on nicotine-induced serine phosphorylation of Akt: inhibits
JAK2
  effect on TC-1698-induced activation of JAK2: suppression of activation
  effect on basal and nicotine-stimulated JAK2 tyrosine phosphorylation: inhibits
PI-3 kinase
  effect on TC-1698-induced activation of PI-3 Kinase: suppression of activation
  effect on nicotine-induced tyrosine phosphorylation of PI-3K: inhibits
Caspase 3
  effect on nicotine inhibition of Aβ(1–42)-induced caspase 3 activation: prevented
[6]
  effect on co-immunoprecipitation (complex formation) of Aβ(1–42) and α7-nAChR: prevented
